Measured values from US8952024B2, “Herbicidal pyrimidone derivatives” (E I du Pont de Nemours and Company, priority 2009, dated 2015).

What was measured:
Assay type in all cases: in vivo
[1] = tested on: umbrella sedge (Cyperus difformis); assay: Test B flooded paddy test; conditions: for Plant response rating, Flood, Sedge, Umbrella: 250 g ai/ha, flooded paddy test, visual rating on 0 to 100 scale (0 no effect, 100 complete control) after 13 to 15 days; for Plant response rating, Sedge, Umbrella: Flood (flooded paddy test), 13 to 15 days; for Sedge, Umbrella plant response rating: Flood, 31 g ai/ha, scale 0 to 100 (0 no effect, 100 complete control)
Procedure, shortened: (§1)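 Each compound is added to standing floodwater (3 cm above soil, maintained) in pots of 2-leaf-stage plants; greenhouse exposure lasts 13–15 d before visual comparison with controls on a 0–100 control scale.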

rice (Oryza sativa) = assay: Test B flooded paddy test; conditions: for Plant response rating, Flood, Rice: 250 g ai/ha, flooded paddy test, visual rating on 0 to 100 scale (0 no effect, 100 complete control) after 13 to 15 days; for Plant response rating, Rice: Flood (flooded paddy test), 13 to 15 days; for Rice plant response rating: Flood, 31 g ai/ha, scale 0 to 100 (0 no effect, 100 complete control)
Procedure, shortened: as §1

[2] = tested on: ducksalad (Heteranthera limosa); assay: Test B flooded paddy test; conditions: for Plant response rating, Flood, Ducksalad: 250 g ai/ha, flooded paddy test, visual rating on 0 to 100 scale (0 no effect, 100 complete control) after 13 to 15 days; for Plant response rating, Ducksalad: Flood (flooded paddy test), 13 to 15 days; for Ducksalad plant response rating: Flood, 31 g ai/ha, scale 0 to 100 (0 no effect, 100 complete control)
Procedure, shortened: as §1

[3] = tested on: barnyardgrass (Echinochloa crus-galli); assay: Test B flooded paddy test; conditions: for Plant response rating, Flood, Barnyardgrass: 250 g ai/ha, flooded paddy test, visual rating on 0 to 100 scale (0 no effect, 100 complete control) after 13 to 15 days; for Plant response rating, Barnyardgrass: Flood (flooded paddy test), 13 to 15 days; for Barnyardgrass plant response rating: Flood, 31 g ai/ha, scale 0 to 100 (0 no effect, 100 complete control)
Procedure, shortened: as §1

[4] = tested on: wheat (Triticum aestivum); assay: Test A pre-/postemergence plant response
Procedure, shortened: (§2)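 Visually rated 0–100 injury (100 = complete control) versus untreated plants, ~10 days in greenhouse. Application pre- (soil spray, loam/sand) and postemergence (2–10 cm, 1–2 leaf stage), same timepoint.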

[5] = tested on: morningglory (Ipomoea spp.); assay: Test A pre-/postemergence plant response
Procedure, shortened: as §2

[6] = tested on: giant foxtail (Setaria faberii); assay: Test A pre-/postemergence plant response
Procedure, shortened: as §2

corn (Zea mays) = assay: Test A pre-/postemergence plant response
Procedure, shortened: as §2

[7] = tested on: pigweed (Amaranthus retroflexus); assay: Test A pre-/postemergence plant response
Procedure, shortened: as §2

[8] = tested on: velvetleaf (Abutilon theophrasti); assay: Test A pre-/postemergence plant response
Procedure, shortened: as §2

[9] = tested on: large crabgrass (Digitaria sanguinalis); assay: Test A pre-/postemergence plant response
Procedure, shortened: as §2

[10] = tested on: barnyardgrass (Echinochloa crus-galli); assay: Test A pre-/postemergence plant response
Procedure, shortened: as §2

[11] = 62 g ai/ha, scale of 0 to 100 where 0 is no effect and 100 is complete control
[12] = 125 g ai/ha, scale 0 to 100, 0 is no effect, 100 is complete control
[13] = Postemergence, 125 g ai/ha, 0 to 100 scale where 0 is no effect and 100 is complete control
[14] = Postemergence, 500 g ai/ha, 0 to 100 scale, 0 = no effect, 100 = complete control, approx. ten days
[15] = Preemergence, 125 g ai/ha, 0 to 100 scale, 0 = no effect, 100 = complete control
[16] = Preemergence, 500 g ai/ha, visual injury, 0 to 100 scale (0 no effect, 100 complete control), approx. ten days
[17] = Postemergence, 125 g ai/ha, visual injury, 0 to 100 scale (0 no effect, 100 complete control), approx. ten days
[18] = Postemergence, 500 g ai/ha, visual injury, 0 to 100 scale (0 no effect, 100 complete control), approx. ten days
[19] = Preemergence, 125 g ai/ha, 0 to 100 scale where 0 is no effect and 100 is complete control, approximately ten days
[20] = Preemergence, 500 g ai/ha, 0 to 100 scale, 0 = no effect, 100 = complete control

CCCCn1c(-c2cccc(F)c2)ncc(C(=O)C2=C(O)CCCC2=O)c1=O [Compound 125]
100: Plant response rating, Pigweed [7, 14] | Plant response rating, Velvetleaf [8, 13] | Plant response rating, Velvetleaf [8, 14] | Plant response rating, Velvetleaf [8, 16] | Plant response rating, Crabgrass, Large [9, 16]
10: Plant response rating, Wheat [4, 14] | Plant response rating, Barnyardgrass [10, 15]
35: Plant response rating, Sedge, Umbrella [1, 11]
60: Plant response rating, Ducksalad [2, 12] | Plant response rating, Flood, Barnyardgrass [3] | Plant response rating, Velvetleaf [8, 15]
0: Plant response rating, Flood, Rice (rice (Oryza sativa)) | Plant response rating, Rice (rice (Oryza sativa); [11]) | Plant response rating, Rice (rice (Oryza sativa); [12]) | Rice plant response rating (rice (Oryza sativa)) | Barnyardgrass plant response rating [3] | Plant response rating, Wheat [4, 13] | Plant response rating, Wheat [4, 15] | Plant response rating, Wheat [4, 16] | Plant response rating, Morningglory [5, 15] | Plant response rating, Morningglory [5, 16] | Plant response rating, Corn (corn (Zea mays); [13]) | Plant response rating, Corn (corn (Zea mays); [15]) | Plant response rating, Corn (corn (Zea mays); [16])
20: Ducksalad plant response rating [2] | Plant response rating, Corn (corn (Zea mays); [14])
70: Plant response rating, Flood, Ducksalad [2] | Plant response rating, Foxtail, Giant [6, 13] | Plant response rating, Crabgrass, Large [9, 13] | Plant response rating, Barnyardgrass [10, 13]
80: Plant response rating, Morningglory [5, 13] | Plant response rating, Morningglory [5, 14] | Plant response rating, Foxtail, Giant [6, 16] | Plant response rating, Crabgrass, Large [9, 15]
40: Plant response rating, Ducksalad [2, 11] | Plant response rating, Barnyardgrass [3, 12] | Plant response rating, Foxtail, Giant [6, 15]
90: Plant response rating, Flood, Sedge, Umbrella [1] | Plant response rating, Sedge, Umbrella [1, 12] | Plant response rating, Foxtail, Giant [6, 14] | Plant response rating, Pigweed [7, 13] | Plant response rating, Pigweed [7, 15] | Plant response rating, Pigweed [7, 16] | Plant response rating, Crabgrass, Large [9, 14] | Plant response rating, Barnyardgrass [10, 14] | Plant response rating, Barnyardgrass [10, 16]
25: Sedge, Umbrella plant response rating [1] | Plant response rating, Barnyardgrass [3, 11]

O=C(C1=C(O)C2CCC(C2)C1=O)c1cnc(-c2ccccc2)n(C2CCCCC2)c1=O (stereo not drawn) [Compound 248]
65: Plant response rating, Sedge, Umbrella [1, 11]
90: Plant response rating, Flood, Ducksalad [2] | Pigweed plant response rating [7, 18] | Plant response rating, Barnyardgrass [10, 13]
20: Plant response rating, Wheat [4, 20] | Plant response rating, Foxtail, Giant [6, 20] | Plant response rating, Corn (corn (Zea mays); [20]) | Plant response rating, Velvetleaf [8, 19]
60: Plant response rating, Velvetleaf [8, 20]
70: Plant response rating, Crabgrass, Large [9, 20]
75: Plant response rating, Sedge, Umbrella [1, 12] | Ducksalad plant response rating [2]
50: Sedge, Umbrella plant response rating [1] | Plant response rating, Foxtail, Giant [6, 17] | Plant response rating, Crabgrass, Large [9, 13]
0: Plant response rating, Flood, Rice (rice (Oryza sativa)) | Plant response rating, Rice (rice (Oryza sativa); [11]) | Plant response rating, Rice (rice (Oryza sativa); [12]) | Rice plant response rating (rice (Oryza sativa)) | Plant response rating, Barnyardgrass [3, 11] | Plant response rating, Barnyardgrass [3, 12] | Barnyardgrass plant response rating [3] | Plant response rating, Wheat [4, 17] | Wheat plant response rating [4, 18] | Plant response rating, Wheat [4, 19] | Plant response rating, Morningglory [5, 19] | Plant response rating, Corn (corn (Zea mays); [13]) | Plant response rating, Corn (corn (Zea mays); [19]) | Plant response rating, Pigweed [7, 19] | Plant response rating, Barnyardgrass [10, 19]
100: Plant response rating, Morningglory [5, 17] | Morningglory plant response rating [5, 18] | Foxtail, Giant plant response rating [6, 18] | Plant response rating, Velvetleaf [8, 17] | Velvetleaf plant response rating [8, 18] | Barnyardgrass plant response rating [10, 18]
85: Plant response rating, Flood, Sedge, Umbrella [1]
30: Corn plant response rating (corn (Zea mays); [18]) | Plant response rating, Barnyardgrass [10, 20]
40: Plant response rating, Flood, Barnyardgrass [3] | Plant response rating, Morningglory [5, 20] | Plant response rating, Pigweed [7, 20]
10: Plant response rating, Foxtail, Giant [6, 19] | Plant response rating, Crabgrass, Large [9, 19]
80: Plant response rating, Ducksalad [2, 11] | Plant response rating, Ducksalad [2, 12] | Plant response rating, Pigweed [7, 17] | Crabgrass, Large plant response rating [9, 18]
